{"source": "patent US9533973B2", "about": "“Allosteric modulators of 5-hydroxytryptamine 2C receptor (5-HT2CR)” (THE BOARD OF REGENTS OF THE UNIVERSITY OF TEXAS SYSTEM, priority 2011, dated 2017)", "key": {"rats": {"test_system": "rats", "assay": "Spontaneous locomotor activity (open field horizontal ambulation)", "format": "in vivo, rat", "protocol": "Locomotor activity was monitored and quantified under low light conditions using a modified open field activity system (San Diego Instruments, San Diego, Calif.) according to previous publications with minor modifications (Cunningham et al., 2011, Neuropharmacology 61:513-523). Clear Plexiglass chambers (40×40×40 cm) were surrounded by a 4×4 photobeam matrix positioned 4 cm from the chamber floor. Consecutive photobeam breaks within the 16×16 cm of the activity monitor were recorded as central ambulation. Peripheral ambulation was counted as consecutive beam breaks in the surrounding perimeter. Central and peripheral ambulations were summed to provide a measure of total horizontal ambulation. […] The effects of CYD-1-78-2 and CYD-1-79 alone or in combination with the selective 5-HT2CR agonist WAY163909 were established in a within-subjects design. To control for order effects, drug doses and vehicles were administered in random sequence to individual rats across sessions such that all rats received all treatment combinations and were tested every three days. Rats received vehicle (saline, 1 mL/kg, i.p.), CYD-1-78-2 (0.5, 1, or 3 mg/kg, i.p.) or the combination of CYD-1-78-2 (0.5 mg/kg, i.p.) plus WAY163909 (1 mg/kg, i.p.) immediately prior to placement in activity monitors on each test day; locomotor activity was assessed for 90 min. In a separate cohort of rats, rats received vehicle (saline, 1 mL/kg, i.p.), CYD-1-79 (0.5, 1, or 5 mg/kg, i.p.) or the combination of CYD-1-79 (0.5 mg/kg, i.p.) plus WAY163909 (1 mg/kg, i.p.) immediately prior to placement in activity monitors on each test day; locomotor activity was assessed for 90 min. The combination of CYD-1-78-2 plus WAY163909 or CYD-1-79 plus WAY163909 was administered simultaneously.\nLocomotor activity data are presented as mean total horizontal ambulation (±SEM) over the entire 90-min session or within 5 min time bins across the session. A two-way ANOVA for repeated measures for the factors of treatment and time was conducted. The main effect of treatment on total horizontal ambulation was analyzed with a repeated measures, one-way analysis of variance using the GLM procedure (SAS for Windows). Subsequent a priori comparisons between means for total horizontal ambulation were made using the Dunnett's procedure, with vehicle (saline) as the comparator."}, "5-HT2AR": {"target": "T1, 5-HT2AR (Homo sapiens, UniProt P28223)", "T1 construct": "expressed in transfected cells; host or cells: CHO cells (5-HT2AR—CHO)", "T1 sequence (P28223 whole entry)": "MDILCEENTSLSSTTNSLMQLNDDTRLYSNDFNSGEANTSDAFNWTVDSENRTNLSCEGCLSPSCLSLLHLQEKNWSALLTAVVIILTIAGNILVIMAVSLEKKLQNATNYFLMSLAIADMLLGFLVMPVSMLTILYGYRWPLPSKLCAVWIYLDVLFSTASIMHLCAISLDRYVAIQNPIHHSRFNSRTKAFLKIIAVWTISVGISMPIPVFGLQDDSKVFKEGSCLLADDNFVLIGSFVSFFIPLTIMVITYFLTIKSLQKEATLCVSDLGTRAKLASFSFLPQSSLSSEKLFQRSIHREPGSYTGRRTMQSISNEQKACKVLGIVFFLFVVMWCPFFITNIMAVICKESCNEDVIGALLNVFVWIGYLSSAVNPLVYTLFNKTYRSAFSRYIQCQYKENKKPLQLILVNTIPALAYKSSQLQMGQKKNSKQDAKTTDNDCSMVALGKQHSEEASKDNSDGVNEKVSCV", "assay": "5-HT induced intracellular calcium (Cai++) release assay in live 5-HT2AR-CHO cells", "format": "cell-based", "conditions": "compound alone or in the presence of 5-HT", "protocol": "Selected results for the biological characterization of the synthesized compounds can be found in Ding et al., ACS Chem. Neurosci., 3, 538-545, 2012, and also described herein. The biological activity is assessed using an intracellular calcium (Cai^++) release assay. The best-characterized intracellular signaling pathway of the 5-HT2CR is the activation of phospholipase C (PLCβ) via Gαq/11 proteins and the production of diacylglycerol (DAG) and inositol-1,4,5-trisphosphate (IP3), leading to increased Cai^++ release from intracellular stores (Berg et al., Neuropharmacology 55, 969-76, 2008). Functional characterization of our synthetic PNU-69176E (CYD-1-78-2) and its diastereomer CYD-1-78-1 was determined by utilizing an Cai^++ release assay in live cells in which Cai^++ levels can be regarded as an outcome measure of activation of the 5-HT2CR signaling pathway (Berg et al., Neuropharmacology 55, 969-76, 2008). […]\nChanges in Cai^++ levels were determined using the calcium sensitive dye Calcium 4 (FLIPR No-wash kit, Molecular Devices, Sunnyvale, Calif., part #R8142). […] Fluorescence (λex=485 nm, λem=525 nm) was measured with a FlexStation3 (Molecular Devices). […] Addition of 20 μL of 5× concentrated tested compound occurred at 17 sec and fluorescence was recorded every 1.7 sec for 90 sec to determine any innate agonist activity. […]"}}, "data": [{"smiles": "CCCCCCCCCCC[C@@H]1CCN[C@H](C(=O)N[C@@H]([C@H]2O[C@H](SC)[C@H](O)[C@@H](O)[C@H]2O)[C@H](C)Cl)C1.Cl", "note": "[CYD-1-78-2]", "values": [{"measurement": "effect on spontaneous locomotor activity", "setting": "rats; 0.5 mg/kg alone", "value": "ineffective"}, {"measurement": "total horizontal ambulation versus saline, combination with WAY163909", "setting": "rats; 0.5 mg/kg i.p. plus WAY163909 1 mg/kg i.p., 90-min session, p<0.05", "value": "significantly reduces"}, {"measurement": "horizontal ambulation versus saline in 5-min intervals, combination with WAY163909", "setting": "rats; 0.5 mg/kg i.p. plus WAY163909 1 mg/kg i.p., CYD-1-78-2: interval 1 and 2, CYD-1-79: interval 2, p<0.05", "value": "significantly reduces"}, {"measurement": "horizontal ambulation versus saline in 5-min intervals", "setting": "rats; 1 mg/kg i.p., at interval 4, 5 and 6, p<0.05", "value": "significantly reduces"}, {"measurement": "total horizontal ambulation summed across the 90-min test session versus saline", "setting": "rats; 1 mg/kg i.p., p<0.05", "value": "significantly reduces"}, {"measurement": "horizontal ambulation versus saline in 5-min intervals", "setting": "rats; 3 mg/kg i.p., at interval 1, 2, 3 and 11, p<0.05", "value": "significantly reduces"}, {"measurement": "total horizontal ambulation summed across the 90-min test session versus saline", "setting": "rats; 3 mg/kg i.p., p<0.05", "value": "significantly reduces"}, {"measurement": "total ambulations", "setting": "rats; 1 and 3 mg/kg, i.p., unhabituated animals, 90 minutes", "value": "dose-dependently decreases"}, {"measurement": "selective 5-HT2CR agonist-mediated suppression of spontaneous locomotor activity", "setting": "rats; with WAY163909", "value": "augment"}, {"measurement": "alteration of Cai++ release in 5-HT2AR-CHO cells", "setting": "5-HT2AR", "value": "neither"}]}]}
